Measurements taken from publication PMC7700029, “Repurposing Napabucasin as an Antimicrobial Agent against Oral Streptococcal Biofilms” (BioMed Research International, 2020).
Values after ≈ are worked out from the molar mass of the structure shown.

Key:
S. gordonii biofilm [1] = test: Biofilm formation inhibition, crystal violet (MBIC); assay type: cell-based, Streptococcus gordonii; conditions: 24 h, 90% or more inhibition of biofilm formation
Procedure: (§1) The minimum biofilm inhibition concentration (MBIC) was used to evaluate the effect of NAP on biofilm formation. S. mutans, S. gordonii, or S. sanguinis (1 × 10^7CFU/mL, 10 μL/well) were grown in BHIS with twofold serial dilution of NAP (200 μL/well) ranging from 0.12 to 125 μg/mL at 37°C for 24 h. A parallel study was also performed with BHIS as a negative control. Then, the supernatants from the wells were decanted, and the adherent biofilm was washed three times with PBS to remove the planktonic cells. Fixed with methanol for 15 min and air-dried at room temperature, the biofilm was stained with 0.1% (wt/vol) crystal violet (Sigma) for 5 min, rinsed with deionized water until blank control wells were colorless, and added 200 μL of 95% ethanol to each crystal violet-stained well. Subsequently, the plate was rocked 30 min at room temperature, and the absorbance at 595 nm was recorded. The percentage of inhibition was calculated using the equation: (A595ofnegativecontrol − A595ofthetestgroup)/A595ofnegativecontrol × 100%.

[2] = system: multispecies biofilms on human enamel slabs; test: Biofilm-induced demineralization of human enamel slabs, transverse microradiography; assay type: cell-based, S. mutans, S. gordonii, S. sanguinis; conditions: 62.5 μg/mL NAP, 0.2% CHX, 5 min three times per day for 5 days; compared to negative control
Description: Human teeth free of white spots, cracks, and other defects that had been extracted for periodontal or impacted reasons were collected under a protocol approved by the Ethics Committee of West China Hospital of Stomatology, Sichuan University (WCHSIRB-D-2018-107). Crowns were separated from roots and cut into four sections measuring 5mm × 5mm × 2mm by using a diamond-coated saw (Struers Minitom; Struers, Copenhagen, Denmark) under continuous water cooling. The enamel slabs were embedded in polymethylmethacrylate and painted with two layers of acid-resistant nail varnish, leaving a 4mm × 4mm window of the exposed enamel surface. Then, these surfaces were polished progressively with waterproof silicon carbide abrasive papers (800–4000 grit; Struers, Copenhagen, Denmark) and were ultrasonically cleaned in a deionized water for 5 min to remove the residual abrasives. All slabs were sterilized with ethylene oxide. The 30 specimens were randomly divided into 3 groups: PBS, 62.5 μg/mL NAP, and 0.2% CHX. Enamel slabs obtained from the same tooth were evenly distributed to each test group.
Overnight cultures of S. mutans, S. gordonii, and S. sanguinis (1 × 10^7CFU/mL) were simultaneously inoculated on enamel slabs in a 24-well cell culture plate with BHIS at 37°C. Slabs with biofilms were then exposed to PBS, 62.5 μg/mL NAP, and 0.2% CHX for 5 days (5 min, three times per day). The 5-day demineralization duration was in accordance with previous studies. All specimens were then washed in PBS and refreshed with BHIS after every exposure. After 5 days of treatment, specimens were taken out and rinsed with PBS to remove the biofilms. Then, specimens were cut again and polished with a hand plane—parallel from both sides with waterproof silicon carbide abrasive papers (800–4000 grit; Struers, Copenhagen, Denmark) to thickness ranging around […]. X-ray films of experimental lesions were acquired with an X-ray generator (Softex, Japan) equipped with a microradiography camera and then were further examined using a Zeiss AXIO Imager A2 microscope (Carl Zeiss, Germany). Quantitative data was acquired by a calibrated analysis system TMR2006 (Inspektor Research Systems BV, Netherlands). Data are obtained as the mean of 10 separate samples.

S. sanguinis biofilm [3] = test: Biofilm formation inhibition, crystal violet (MBIC); assay type: cell-based, Streptococcus sanguinis; conditions: 24 h, 90% or more inhibition of biofilm formation
Procedure: as §1

S. sanguinis biofilm [4] = test: Reduction of 1-day-developed biofilm, crystal violet (MBRC); assay type: cell-based, Streptococcus sanguinis; conditions: S. sanguinis 1-day-developed biofilm, 24 h, 90% or more reduction
Procedure: (§2) The effect of NAP on the 1-day-developed biofilm was examined by the minimum biofilm reduction concentration (MBRC). S. mutans, S. gordonii, or S. sanguinis (1 × 10^7CFU/mL, 200 μL/well) in BHIS was added to a 96-well polystyrene tissue culture plate. After anaerobic incubation at 37°C for 24 h, the supernatants were removed and washed with PBS three times without disrupting the integrity of biofilms. Fresh BHIS containing NAP ranging from 0.12 to 125 μg/mL were added to each well and incubated at 37°C for 24 h. The negative control was biofilms in BHIS without NAP. The biofilm was fixed, air-dried, stained, and quantified as described above.

macrophage RAW264.7 = test: In vitro cytotoxicity/viability, CCK-8; assay type: cell-based; conditions: Mus musculus, 5 min, RAW264.7, 5 min exposure, read-out: IC50 (cell viability)
Procedure: (§3) Cell viability was evaluated by using the Cell Counting Kit-8 (CCK-8, Dojindo, Kumamoto, Japan) assay as described by Park et al.. Test cells were human oral keratinocytes (HOK), human gingival epithelia (HGE), and macrophage RAW264.7 (RAW264.7). Cells were plated in 96-well plates at 10,000 cells/well in minimum essential medium with the Dulbecco's modified Eagle's medium (DMEM) supplemented with 10% fetal bovine serum and 1% antibiotic-antimycotic. The cells were grown in a humidified environment with 5% CO2 at 37°C for 24 hours. Considering the short exposure duration of oral cells to mouth rinses, cells were treated with medium containing NAP (0.12 to 62.5 μg/mL) and positive control CHX for 5 min [27–29]. Then, the cells were washed with PBS twice and were added with the fresh medium (200 μL/well). Each well was added with 10 μL of CCK-8, and after incubation in the CO2 incubator for 1 h to 1.5 h, absorbance was measured at the wavelength of 450 nm. The cell viability was calculated according to the following formula: (%) = (A450oftestgroup − A450ofblankcontrol)/(A450ofnegativecontrol − A450ofblankcontrol) × 100%.

[5] = system: human gingival epithelial cells (HGE); test: In vitro cytotoxicity/viability, CCK-8; assay type: cell-based; conditions: Epithelial cell, 5 min, 5 min exposure
Procedure: as §3

[6] = system: human oral keratinocytes (HOK); test: In vitro cytotoxicity/viability, CCK-8; assay type: cell-based; conditions: Keratinocyte, 5 min, 5 min exposure, read-out: IC50 (cell viability)
Procedure: as §3

[7] = system: oral streptococcal multispecies biofilms; test: Multispecies biofilm imaging (dead/live, EPS staining, CLSM); assay type: cell-based, S. mutans, S. gordonii, S. sanguinis; conditions: 5 min three times per day for 3 days; for structural integrity of multispecies biofilms: 0.2% CHX
Procedure: The multispecies biofilms were cultivated in accordance with a previous study. Overnight cultures of S. mutans, S. gordonii, and S. sanguinis were simultaneously inoculated (inoculum ratio = 1 : 1 : 1). The chemotaxis chamber μ-Slide, which has extremely low values of birefringence and autofluorescence, was used for bacterial culture and confocal microscopy. Bacterial suspensions (1 × 10^5CFU/mL for each strain) were mixed in 300 μL BHI containing 1% sucrose (BHIS) in the μ-Slide (8 wells, 80826, Ibidi) at 37°C for 24 h. Then, biofilms were exposed to PBS, 62.5 μg/mL NAP, and 0.2% CHX for 3 days (5 min, three times per day). This short-term repeated treatment was to simulate the daily exposure to the mouth rinses.
For dead/live imaging, biofilms were stained with fluorescent LIVE/DEAD BacLight Bacterial Viability stain (Molecular Probes, Invitrogen) containing SYTO 9 and propidium iodide according to the manufacturer's instructions. The labeled biofilms were imaged with a DMIRE2 confocal laser scanning microscope (Leica, Wetzlar, Germany) equipped with a 60x oil immersion objective lens.
For extracellular polysaccharide (EPS) staining, the bacterial cell and the EPS were stained with SYTO 9 (Molecular Probes) and Alexa Fluor 647-labeled dextran conjugate (Molecular Probes) as described previously. The biofilms were captured with a Leica DMIRE2 confocal laser scanning microscope as in live/dead imaging.
All three-dimensional reconstructions of the biofilms were performed with Imaris 7.0.0 (Bitplane, Zürich, Switzerland). The quantification of the dead/live and EPS/bacteria volume ratio was, respectively, performed with Image-Pro Plus (Media Cybernetics, Silver Spring, MD, USA) and COMSTAT (http://www.image-analysis.dk).

S. mutans biofilm [8] = test: Biofilm formation inhibition, crystal violet (MBIC); assay type: cell-based, Streptococcus mutans; conditions: 24 h, 90% or more inhibition of biofilm formation
Procedure: as §1

S. gordonii biofilm [9] = test: Reduction of 1-day-developed biofilm, crystal violet (MBRC); assay type: cell-based, Streptococcus gordonii; conditions: S. gordonii 1-day-developed biofilm, 24 h, 90% or more reduction
Procedure: as §2

[10] = system: oral streptococcal multispecies biofilms; test: Multispecies biofilm composition by FISH and qPCR; assay type: cell-based, S. mutans, S. gordonii, S. sanguinis; conditions: 62.5 μg/mL NAP, 5 min three times per day for 3 days; for total amount of streptococci: 0.2% CHX
Procedure: The multispecies biofilms were cultivated in accordance with a previous study. Overnight cultures of S. mutans, S. gordonii, and S. sanguinis were simultaneously inoculated (inoculum ratio = 1 : 1 : 1). The chemotaxis chamber μ-Slide, which has extremely low values of birefringence and autofluorescence, was used for bacterial culture and confocal microscopy. Bacterial suspensions (1 × 10^5CFU/mL for each strain) were mixed in 300 μL BHI containing 1% sucrose (BHIS) in the μ-Slide (8 wells, 80826, Ibidi) at 37°C for 24 h. Then, biofilms were exposed to PBS, 62.5 μg/mL NAP, and 0.2% CHX for 3 days (5 min, three times per day). This short-term repeated treatment was to simulate the daily exposure to the mouth rinses. For fluorescent in situ hybridization imaging, biofilms were fixed in 4% paraformaldehyde overnight and investigated by species-specific probes. The multispecies biofilms were imaged with a confocal laser scanning microscope (FV1000, Olympus, Tokyo, Japan). Total DNA of biofilms were isolated and purified using a TIANamp Bacteria DNA kit (TIANGEN, Beijing, China). The purity and concentration of DNA were detected with a NanoDrop 2000 spectrophotometer (Thermo Scientific, Waltham, MA, USA). The extracts were stored at -20°C until use. TaqMan real-time polymerase chain reaction (Life Technologies, Carlsbad, CA, USA) was used to quantify the absolute number of S. mutans, S. gordonii, and S. sanguinis as described by the manufacturer (Takara, Dalian, China).

[11] = system: Streptococcus gordonii DL1; test: Bacterial susceptibility test, microdilution in BHI (MIC/MBC); assay type: cell-based; conditions: S. gordonii, planktonic cells
Procedure: (§4) Streptococcus mutans UA159, Streptococcus gordonii DL1, and Streptococcus sanguinis ATCC 10556 were kindly provided by the State Key Laboratory of Oral Diseases (Sichuan University, Chengdu, China). S. mutans, S. gordonii, and S. sanguinis were routinely grown at 37°C under aerobic condition (5% CO2) in brain heart infusion broth (BHI; Difco, Sparks, MD). Inoculum for the experiment was adjusted to 1 × 10^8CFU/mL for S. mutans, S. gordonii, and S. sanguinis based on the OD600 nm versus CFU/mL graph of each bacterium and further 1 : 100 diluted in the growth culture. When needed, medium was supplemented with 1% sucrose (designated BHIS). The minimum inhibitory concentration (MIC) and minimum bactericidal concentration (MBC) of NAP against S. mutans, S. gordonii, and S. sanguinis were determined by a microdilution method in BHI, as described previously. The concentrations of NAP ranged from 0.97 to 1000 μg/mL (twofold dilutions). BHI broth containing equivalent DMSO (1% to 0.001%, v/v) was used as a solvent control and ran simultaneously to control for the possible growth inhibition caused by the added DMSO. CHX was used as a positive control, cell control (test bacteria and BHI broth) was used as a negative control, and BHI broth was used as a blank control.

[12] = system: Streptococcus sanguinis ATCC 10556; test: as above; assay type: cell-based; conditions: ATCC10556, S. sanguinis, planktonic cells
Procedure: as §4

[13] = system: Streptococcus mutans UA159; test: as above; assay type: cell-based; conditions: S. mutans, planktonic cells
Procedure: as §4

S. mutans biofilm [14] = test: Reduction of 1-day-developed biofilm, crystal violet (MBRC); assay type: cell-based, Streptococcus mutans; conditions: S. mutans 1-day-developed biofilm, 24 h, 90% or more reduction
Procedure: as §2

[15] = design: method as in PMID 28573435, PMID 31241371; conditions: orally 240 mg twice a day, patients with advanced malignancies; cited from earlier work
[16] = 62.5 μg/mL NAP compared to 0.2% CHX

SMILES	MBIC (S. gordonii biofilm [1]) [µg/mL]	depth of biofilm-induced lesion [2]	mineral loss of enamel [2]	MBIC (S. sanguinis biofilm [3]) [µg/mL]	MBRC (S. sanguinis biofilm [4]) [µg/mL]	IC50 (macrophage RAW264.7) [µg/mL]	IC50 [5] [µg/mL]	IC50 [6] [µg/mL]	structural integrity of multispecies biofilms ([7]; 62.5 μg/mL NAP)	MBIC (S. mutans biofilm [8]) [µg/mL]	MBRC (S. gordonii biofilm [9]) [µg/mL]	total amount of streptococci [10]	MBC [11] [µg/mL]	MIC [11] [µg/mL]	MBC [12] [µg/mL]	MIC [12] [µg/mL]	MBC [13] [µg/mL]	MIC [13] [µg/mL]	MBRC (S. mutans biofilm [14]) [µg/mL]	further results
[H]/N=C(\N/C(=N/[H])NCCCCCCNC(=N)NC(=N)Nc1ccc(Cl)cc1)Nc1ccc(Cl)cc1 [CHX, Chlorhexidine]	3.91	significantly reduced	significantly reduced	1.95	3.91	31.2 to 62.5 (≈ 61.8 to 124 µM)	31.2 to 62.5 (≈ 61.8 to 124 µM)	31.2 to 62.5 (≈ 61.8 to 124 µM)	disrupted the structural integrity of multispecies biofilms significantly	0.98	15.63	significantly reduced the total amount of streptococci	7.81 (≈ 15.5 µM)	3.91 (≈ 7.74 µM)	3.91 (≈ 7.74 µM)	0.49 (≈ 0.969 µM)	7.81 (≈ 15.5 µM)	1.95 (≈ 3.86 µM)	62.50	
CC(=O)c1cc2c(o1)C(=O)c1ccccc1C2=O [NAP, 2-acetylfuro-1,4-naphathoquinone]	0.49	significantly reduced	significantly reduced	1.95	3.91	> 62.5	> 62.5	> 62.5	disrupted the structural integrity of multispecies biofilms significantly	1.95	15.63	significantly reduced the total amount of streptococci	0.98 (≈ 4.08 µM)	0.49 (≈ 2.04 µM)	15.6 (≈ 65.1 µM)	0.49 (≈ 2.04 µM)	15.6 (≈ 65.1 µM)	3.91 (≈ 16.3 µM)	62.50	adverse events [15]: generally mild; EPS/bacteria ratio [7, 16]: equivalent; dead/live cell ratio [7, 16]: equivalent dead/live cell ratio; bacteria within the biofilms (volume) ([7]; 62.5 μg/mL NAP vs 0.2% CHX): further reduced the bacteria within the oral streptococcal biofilms as compared to CHX; EPS production in the biofilm ([7]; 62.5 μg/mL NAP): significantly inhibit EPS production; multispecies biofilm composition [10]: inhibited S. mutans and S. sanguinis but increased the proportion of the commensal S. gordonii
